One test deals with Human mTOR (FLAG-TOR) (Homo sapiens, UniProt P42345). Description: mTOR kinase assay (DELFIA format, purified enzyme). The format is biochemical. The note with it: read-out: IC50 mTOR.
A further test addresses PI3K-α (Homo sapiens, UniProt P42336). Description: PI3K-alpha fluorescence polarization assay. The note with it: read-out: IC50 PI3Kα.
Another test concerns the target PI3K-γ (Homo sapiens, UniProt P48736). Description: PI3K-gamma fluorescence polarization assay. The following applies: read-out: IC50 PI3Kγ.
Test [1] deals with human prostate LNCap tumor cell line. Description: In vitro cell culture growth assay (MTS), LNCap. The following applies: read-out: IC50 LNCap.

“And” between values parts separate entries of the source, which are not always exact repeats. Equal values may be shown once. Read-outs that look alike come from different tables or passages of the source.

In general, IC50 refers to the concentration that gives 50% inhibition.

PI3K-γ, sequence (P48736 whole entry, species assumed): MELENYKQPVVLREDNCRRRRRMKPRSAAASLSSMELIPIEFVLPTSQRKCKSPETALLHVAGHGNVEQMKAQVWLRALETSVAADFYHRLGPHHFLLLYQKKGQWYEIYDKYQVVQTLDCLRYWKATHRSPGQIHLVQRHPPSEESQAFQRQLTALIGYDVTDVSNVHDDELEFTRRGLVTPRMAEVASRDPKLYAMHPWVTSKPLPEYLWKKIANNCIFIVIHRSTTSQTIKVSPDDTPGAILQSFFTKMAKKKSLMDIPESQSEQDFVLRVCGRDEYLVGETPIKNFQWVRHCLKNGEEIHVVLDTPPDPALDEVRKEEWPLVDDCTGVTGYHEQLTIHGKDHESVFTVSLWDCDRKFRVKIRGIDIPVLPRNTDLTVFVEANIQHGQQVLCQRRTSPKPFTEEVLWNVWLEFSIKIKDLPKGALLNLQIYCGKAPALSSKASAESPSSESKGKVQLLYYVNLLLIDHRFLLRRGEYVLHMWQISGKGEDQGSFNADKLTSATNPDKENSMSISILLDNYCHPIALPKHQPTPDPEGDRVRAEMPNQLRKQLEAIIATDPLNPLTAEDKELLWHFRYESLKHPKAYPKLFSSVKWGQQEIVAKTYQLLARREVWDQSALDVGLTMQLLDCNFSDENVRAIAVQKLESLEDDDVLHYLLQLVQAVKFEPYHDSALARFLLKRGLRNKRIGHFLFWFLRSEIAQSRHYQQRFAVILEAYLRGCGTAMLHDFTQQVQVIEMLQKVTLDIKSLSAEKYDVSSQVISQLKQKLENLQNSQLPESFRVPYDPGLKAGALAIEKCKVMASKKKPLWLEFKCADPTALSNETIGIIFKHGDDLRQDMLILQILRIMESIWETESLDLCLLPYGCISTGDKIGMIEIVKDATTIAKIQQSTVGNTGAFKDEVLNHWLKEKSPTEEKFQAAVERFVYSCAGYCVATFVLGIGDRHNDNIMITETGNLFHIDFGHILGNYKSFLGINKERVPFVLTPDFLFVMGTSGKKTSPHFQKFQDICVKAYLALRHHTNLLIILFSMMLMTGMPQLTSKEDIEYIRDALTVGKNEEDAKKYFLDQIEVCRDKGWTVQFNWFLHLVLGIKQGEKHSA
Human mTOR (FLAG-TOR), sequence (P42345 1360-2549 limits assumed): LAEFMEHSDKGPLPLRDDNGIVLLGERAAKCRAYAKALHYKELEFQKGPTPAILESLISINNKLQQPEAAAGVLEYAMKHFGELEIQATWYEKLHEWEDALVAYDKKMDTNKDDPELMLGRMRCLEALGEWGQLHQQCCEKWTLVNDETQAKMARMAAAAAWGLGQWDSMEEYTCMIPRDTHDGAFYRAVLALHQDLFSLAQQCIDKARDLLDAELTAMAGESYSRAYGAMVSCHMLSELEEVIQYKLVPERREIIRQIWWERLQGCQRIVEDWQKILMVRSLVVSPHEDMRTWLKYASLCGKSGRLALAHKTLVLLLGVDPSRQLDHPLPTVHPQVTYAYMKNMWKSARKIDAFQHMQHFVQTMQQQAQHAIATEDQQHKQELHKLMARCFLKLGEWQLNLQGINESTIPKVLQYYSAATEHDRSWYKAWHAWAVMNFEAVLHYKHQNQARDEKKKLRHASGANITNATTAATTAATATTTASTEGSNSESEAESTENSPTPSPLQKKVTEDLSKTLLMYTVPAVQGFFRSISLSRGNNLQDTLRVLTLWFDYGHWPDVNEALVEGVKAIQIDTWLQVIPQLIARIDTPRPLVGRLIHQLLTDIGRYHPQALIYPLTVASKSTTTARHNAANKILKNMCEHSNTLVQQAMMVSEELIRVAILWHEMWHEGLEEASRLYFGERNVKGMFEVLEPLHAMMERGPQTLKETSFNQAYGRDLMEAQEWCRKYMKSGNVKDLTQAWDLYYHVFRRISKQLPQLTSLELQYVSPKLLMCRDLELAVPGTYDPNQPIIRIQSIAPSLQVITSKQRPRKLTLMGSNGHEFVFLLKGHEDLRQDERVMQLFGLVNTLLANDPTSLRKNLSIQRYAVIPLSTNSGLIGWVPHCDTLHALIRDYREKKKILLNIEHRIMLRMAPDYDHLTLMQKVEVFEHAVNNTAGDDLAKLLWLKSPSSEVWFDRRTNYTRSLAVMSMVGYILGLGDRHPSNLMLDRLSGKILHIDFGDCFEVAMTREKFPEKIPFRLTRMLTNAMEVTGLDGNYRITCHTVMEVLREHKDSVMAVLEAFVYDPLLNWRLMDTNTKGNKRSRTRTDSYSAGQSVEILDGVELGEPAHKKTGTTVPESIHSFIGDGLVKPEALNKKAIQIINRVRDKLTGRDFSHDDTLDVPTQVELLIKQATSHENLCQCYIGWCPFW
PI3K-α, sequence (P42336 whole entry, species assumed): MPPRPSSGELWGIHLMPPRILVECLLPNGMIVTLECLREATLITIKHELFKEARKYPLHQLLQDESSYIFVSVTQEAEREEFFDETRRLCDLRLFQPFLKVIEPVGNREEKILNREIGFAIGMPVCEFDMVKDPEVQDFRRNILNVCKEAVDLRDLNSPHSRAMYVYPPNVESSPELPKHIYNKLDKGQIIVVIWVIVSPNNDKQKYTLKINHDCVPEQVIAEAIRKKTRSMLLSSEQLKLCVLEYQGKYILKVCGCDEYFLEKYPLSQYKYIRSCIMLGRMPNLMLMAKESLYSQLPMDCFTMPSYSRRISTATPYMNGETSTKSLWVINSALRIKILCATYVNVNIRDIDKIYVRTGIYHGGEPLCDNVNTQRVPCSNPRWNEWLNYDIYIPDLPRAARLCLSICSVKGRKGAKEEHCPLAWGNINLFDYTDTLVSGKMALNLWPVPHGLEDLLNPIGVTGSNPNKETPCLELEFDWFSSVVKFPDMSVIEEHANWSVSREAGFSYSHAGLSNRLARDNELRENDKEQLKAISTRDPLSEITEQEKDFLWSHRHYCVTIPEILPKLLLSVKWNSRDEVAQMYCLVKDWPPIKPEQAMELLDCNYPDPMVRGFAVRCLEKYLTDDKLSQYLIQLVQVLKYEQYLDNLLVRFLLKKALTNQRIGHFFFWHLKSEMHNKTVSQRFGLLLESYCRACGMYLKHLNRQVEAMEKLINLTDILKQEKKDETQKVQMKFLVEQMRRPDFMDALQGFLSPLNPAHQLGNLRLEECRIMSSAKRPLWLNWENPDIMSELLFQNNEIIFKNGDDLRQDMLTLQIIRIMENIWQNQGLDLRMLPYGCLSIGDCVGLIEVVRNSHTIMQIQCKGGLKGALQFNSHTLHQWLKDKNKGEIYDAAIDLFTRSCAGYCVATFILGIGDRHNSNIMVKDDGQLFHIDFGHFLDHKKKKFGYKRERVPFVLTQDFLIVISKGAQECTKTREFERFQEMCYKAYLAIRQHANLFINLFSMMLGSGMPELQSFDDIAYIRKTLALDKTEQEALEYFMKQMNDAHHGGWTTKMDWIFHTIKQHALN
PI3K-α, sequence (P27986 whole entry partner, species assumed): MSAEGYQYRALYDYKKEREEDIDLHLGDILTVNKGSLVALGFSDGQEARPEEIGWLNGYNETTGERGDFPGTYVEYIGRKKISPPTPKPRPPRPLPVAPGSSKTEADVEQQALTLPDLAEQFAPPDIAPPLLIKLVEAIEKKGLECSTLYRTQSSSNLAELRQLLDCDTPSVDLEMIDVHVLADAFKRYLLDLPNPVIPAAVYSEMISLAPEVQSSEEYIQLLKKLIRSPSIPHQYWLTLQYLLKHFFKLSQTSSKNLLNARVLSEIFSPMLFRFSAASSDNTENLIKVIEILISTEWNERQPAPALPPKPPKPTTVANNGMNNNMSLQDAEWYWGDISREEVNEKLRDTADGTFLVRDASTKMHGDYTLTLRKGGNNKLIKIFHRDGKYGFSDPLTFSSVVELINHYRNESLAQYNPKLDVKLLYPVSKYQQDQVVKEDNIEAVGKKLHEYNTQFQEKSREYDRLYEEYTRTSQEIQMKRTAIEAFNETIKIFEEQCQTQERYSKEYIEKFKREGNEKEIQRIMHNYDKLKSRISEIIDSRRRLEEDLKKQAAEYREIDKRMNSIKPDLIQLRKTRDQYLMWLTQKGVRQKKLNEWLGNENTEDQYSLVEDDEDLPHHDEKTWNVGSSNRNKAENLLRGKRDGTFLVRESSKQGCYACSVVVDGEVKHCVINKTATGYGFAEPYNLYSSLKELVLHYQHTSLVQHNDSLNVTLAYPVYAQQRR

As to `O=C(Nc1ccc(-c2nc(OCCC3CCNCC3)nc(N3CC4CCC(C3)O4)n2)cc1)Nc1cccnc1` [Example 182, 1-{4-[4-(8-oxa-3-azabicyclo[3.2.1]oct-3-yl)-6-(2-piperidin-4-ylethoxy)-1,3,5-triazin-2-yl]phenyl}-3-pyridin-3-ylurea], the IC50 on Human mTOR (FLAG-TOR) turned out to be 3 nM; at PI3K-α it was 308 nM; on PI3K-γ, 5000 nM; in test [1] (Homo sapiens, LNCaP, 72 h), 3500 nM.

With `O=C(Nc1ccc(-c2nc(OCC3CCNCC3)nc(N3CC4CCC(C3)O4)n2)cc1)Nc1cccnc1` [Example 183, 1-{4-[4-(8-oxa-3-azabicyclo[3.2.1]oct-3-yl)-6-(piperidin-4-ylmethoxy)-1,3,5-triazin-2-yl]phenyl}-3-pyridin-3-ylurea], the IC50 was found to be 14 nM at Human mTOR (FLAG-TOR); 526 nM on PI3K-α; 11000 nM at PI3K-γ; 8500 nM in test [1] (Homo sapiens, LNCaP, 72 h).

In the case of `CNc1nc(-c2ccc(NC(=O)Nc3cccnc3)cc2)nc(N2CC3CCC(C2)O3)n1` [Example 190, 1-{4-[4-(methylamino)-6-(8-oxa-3-azabicyclo[3.2.1]oct-3-yl)-1,3,5-triazin-2-yl]phenyl}-3-pyridin-3-ylurea], the IC50 turned out to be 6.3 nM at Human mTOR (FLAG-TOR); 780 nM on PI3K-α; 1320 nM at PI3K-γ; 950 nM in test [1] (Homo sapiens, LNCaP, 72 h).

For `CCNc1nc(-c2ccc(NC(=O)Nc3cccnc3)cc2)nc(N2CC3CCC(C2)O3)n1` [Example 191, 1-{4-[4-(ethylamino)-6-(8-oxa-3-azabicyclo[3.2.1]oct-3-yl)-1,3,5-triazin-2-yl]phenyl}-3-pyridin-3-ylurea], the IC50 was 16 nM on Human mTOR (FLAG-TOR); 435 nM on PI3K-α; 4630 nM at PI3K-γ; 220 nM in test [1] (Homo sapiens, LNCaP, 72 h).

With `CN(C)c1nc(-c2ccc(NC(=O)Nc3cccnc3)cc2)nc(N2CC3CCC(C2)O3)n1` [Example 192, 1-{4-[4-(dimethylamino)-6-(8-oxa-3-azabicyclo[3.2.1]oct-3-yl)-1,3,5-triazin-2-yl]phenyl}-3-pyridin-3-ylurea], the IC50 on Human mTOR (FLAG-TOR) was found to be 43 nM; on PI3K-α it was 1120 nM; on PI3K-γ, 453 nM; in test [1] (Homo sapiens, LNCaP, 72 h) it was 620 nM.

On to `CC(C)Nc1nc(-c2ccc(NC(=O)Nc3cccnc3)cc2)nc(N2CC3CCC(C2)O3)n1` [Example 193, 1-{4-[4-(isopropylamino)-6-(8-oxa-3-azabicyclo[3.2.1]oct-3-yl)-1,3,5-triazin-2-yl]phenyl}-3-pyridin-3-ylurea], for which the IC50 worked out at 0.8 nM at Human mTOR (FLAG-TOR); 401 nM on PI3K-α; 3130 nM at PI3K-γ; 105 nM in test [1] (Homo sapiens, LNCaP, 72 h).

Take `CNC(=O)Nc1ccc(-c2nc(NC(C)C)nc(N3CC4CCC(C3)O4)n2)cc1` [Example 212, 1-methyl-3-(4-{4-[(1-methylethyl)amino]-6-(8-oxa-3-azabicyclo[3.2.1]oct-3-yl)-1,3,5-triazin-2-yl}phenyl)urea]: the IC50 turned out to be 6.4 nM on Human mTOR (FLAG-TOR); 902 nM on PI3K-α; 8770 nM on PI3K-γ; 420 nM in test [1] (Homo sapiens, LNCaP, 72 h).

Turning to `CC(C)Nc1nc(-c2ccc(NC(=O)Nc3ccncc3)cc2)nc(N2CC3CCC(C2)O3)n1` [Example 215, 1-(4-{4-[(1-methylethyl)amino]-6-(8-oxa-3-azabicyclo[3.2.1]oct-3-yl)-1,3,5-triazin-2-yl}phenyl)-3-pyridin-4-ylurea], the IC50 on Human mTOR (FLAG-TOR) is 1.2 nM; at PI3K-α, 187 nM; at PI3K-γ it was 3160 nM; in test [1] (Homo sapiens, LNCaP, 72 h), 30 nM.

With `CC(C)Nc1nc(-c2ccc(NC(=O)Nc3ccc(N4CCN(C)CC4)cc3)cc2)nc(N2CC3CCC(C2)O3)n1` [Example 217, 1-(4-{4-[(1-methylethyl)amino]-6-(8-oxa-3-azabicyclo[3.2.1]oct-3-yl)-1,3,5-triazin-2-yl}phenyl)-3-[4-(4-methylpiperazin-1-yl)phenyl]urea], the IC50 at Human mTOR (FLAG-TOR) is 3.2 nM; at PI3K-α, 253 nM; on PI3K-γ, 3230 nM; in test [1] (Homo sapiens, LNCaP, 72 h) it was 13 nM.

Consider `CC(C)Nc1nc(-c2ccc(NC(=O)Nc3ccc(C(=O)NN(C)C)cc3)cc2)nc(N2CC3CCC(C2)O3)n1` [Example 218, 1-{4-[(2,2-dimethylhydrazino)carbonyl]phenyl}-3-(4-{4-[(1-methylethyl)amino]-6-(8-oxa-3-azabicyclo[3.2.1]oct-3-yl)-1,3,5-triazin-2-yl}phenyl)urea], for which the IC50 was 2.6 nM on Human mTOR (FLAG-TOR); 279 nM on PI3K-α; 2780 nM on PI3K-γ; 12 nM in test [1] (Homo sapiens, LNCaP, 72 h).

Take `CC(C)Nc1nc(-c2ccc(NC(=O)Nc3ccc(C(=O)NN4CCCC4)cc3)cc2)nc(N2CC3CCC(C2)O3)n1` [Example 219, 4-{[(4-{4-[(1-methylethyl)amino]-6-(8-oxa-3-azabicyclo[3.2.1]oct-3-yl)-1,3,5-triazin-2-yl}phenyl)carbamoyl]amino}-N-pyrrolidin-1-ylbenzamide]: the IC50 amounted to 5.9 nM on Human mTOR (FLAG-TOR); 561 nM on PI3K-α; 8280 nM on PI3K-γ; 40 nM in test [1] (Homo sapiens, LNCaP, 72 h).

For the molecule `CC(C)Nc1nc(-c2ccc(NC(=O)Nc3ccc(OCCN(C)C)cc3)cc2)nc(N2CC3CCC(C2)O3)n1` [Example 220, 1-{4-[2-(dimethylamino)ethoxy]phenyl}-3-(4-{4-[(1-methylethyl)amino]-6-(8-oxa-3-azabicyclo[3.2.1]oct-3-yl)-1,3,5-triazin-2-yl}phenyl)urea], the IC50 on Human mTOR (FLAG-TOR) turned out to be 3.5 nM; on PI3K-α, 275 nM; at PI3K-γ it was 2830 nM; in test [1] (Homo sapiens, LNCaP, 72 h) it was 40 nM.

For the molecule `CC(C)Nc1nc(-c2ccc(NC(=O)Nc3ccc(CO)cc3)cc2)nc(N2CC3CCC(C2)O3)n1` [Example 221, 1-[4-(hydroxymethyl)phenyl]-3-(4-{4-[(1-methylethyl)amino]-6-(8-oxa-3-azabicyclo[3.2.1]oct-3-yl)-1,3,5-triazin-2-yl}phenyl)urea], the IC50 on Human mTOR (FLAG-TOR) is 2.7 nM; on PI3K-α, 214 nM; at PI3K-γ, 4280 nM; in test [1] (Homo sapiens, LNCaP, 72 h), 120 nM.

As for `CC(C)Nc1nc(-c2ccc(NC(=O)Nc3ccc(CCO)cc3)cc2)nc(N2CC3CCC(C2)O3)n1` [Example 222, 1-[4-(2-hydroxyethyl)phenyl]-3-(4-{4-[(1-methylethyl)amino]-6-(8-oxa-3-azabicyclo[3.2.1]oct-3-yl)-1,3,5-triazin-2-yl}phenyl)urea], the IC50 was found to be 0.5 nM at Human mTOR (FLAG-TOR); 152 nM at PI3K-α; 572 nM on PI3K-γ; 10 nM in test [1] (Homo sapiens, LNCaP, 72 h).

In the case of `O=C(Nc1ccncc1)Nc1ccc(-c2nc(N3C4CCC3COC4)nc(N3C4CCC3COC4)n2)cc1` [Example 224, 1-[4-(4,6-di-3-oxa-8-azabicyclo[3.2.1]oct-8-yl-1,3,5-triazin-2-yl)phenyl]-3-pyridin-4-ylurea], the IC50 at Human mTOR (FLAG-TOR) was 0.4 nM and 0.395 nM; at PI3K-α it was 444 nM; at PI3K-γ, 5870 nM; on PI3K-γ (listed as 717) it was 5870 nM; in test [1] (Homo sapiens, LNCaP, 72 h), under 0.8 nM.

With `COCCNc1nc(-c2ccc(NC(=O)Nc3cccnc3)cc2)nc(N2CC3CCC(C2)O3)n1` [Example 258, 1-(4-{4-[(2-methoxyethyl)amino]-6-(8-oxa-3-azabicyclo[3.2.1]oct-3-yl)-1,3,5-triazin-2-yl}phenyl)-3-pyridin-3-ylurea], the IC50 at Human mTOR (FLAG-TOR) was found to be 2.3 nM; on PI3K-α, 403 nM; on PI3K-γ it was 6170 nM; in test [1] (Homo sapiens, LNCaP, 72 h), 60 nM.

Regarding `C[C@@H](CO)Nc1nc(-c2ccc(NC(=O)Nc3cccnc3)cc2)nc(N2CC3CCC(C2)O3)n1` [Example 259, 1-{4-[4-{[(1S)-2-hydroxy-1-methylethyl]amino}-6-(8-oxa-3-azabicyclo[3.2.1]oct-3-yl)-1,3,5-triazin-2-yl]phenyl}-3-pyridin-3-ylurea], the IC50 was determined as 2.4 nM at Human mTOR (FLAG-TOR); 408 nM on PI3K-α; 5410 nM at PI3K-γ; 580 nM in test [1] (Homo sapiens, LNCaP, 72 h).

For `C[C@H](CO)Nc1nc(-c2ccc(NC(=O)Nc3cccnc3)cc2)nc(N2CC3CCC(C2)O3)n1` [Example 260, 1-{4-[4-{[(1R)-2-hydroxy-1-methylethyl]amino}-6-(8-oxa-3-azabicyclo[3.2.1]oct-3-yl)-1,3,5-triazin-2-yl]phenyl}-3-pyridin-3-ylurea], the IC50 on Human mTOR (FLAG-TOR) was 0.9 nM; on PI3K-α, 417 nM; on PI3K-γ, 4730 nM; in test [1] (Homo sapiens, LNCaP, 72 h) it was 380 nM.

With `CC(C)(CO)Nc1nc(-c2ccc(NC(=O)Nc3cccnc3)cc2)nc(N2CC3CCC(C2)O3)n1` [Example 261, 1-(4-{4-[(2-hydroxy-1,1-dimethylethyl)amino]-6-(8-oxa-3-azabicyclo[3.2.1]oct-3-yl)-1,3,5-triazin-2-yl}phenyl)-3-pyridin-3-ylurea], the IC50 on Human mTOR (FLAG-TOR) was determined as 0.31 nM; on PI3K-α it was 158 nM; on PI3K-γ, 2530 nM; in test [1] (Homo sapiens, LNCaP, 72 h) it was 30 nM.

Turning to `CC(C)(C)Nc1nc(-c2ccc(NC(=O)Nc3cccnc3)cc2)nc(N2CC3CCC(C2)O3)n1` [Example 262, 1-{4-[4-(tert-butylamino)-6-(8-oxa-3-azabicyclo[3.2.1]oct-3-yl)-1,3,5-triazin-2-yl]phenyl}-3-pyridin-3-ylurea], the IC50 at Human mTOR (FLAG-TOR) was found to be 0.29 nM; on PI3K-α, 105 nM; at PI3K-γ, 954 nM; in test [1] (Homo sapiens, LNCaP, 72 h) it was 22 nM.

`O=C(Nc1ccc(-c2nc(N3C[C@@H]4C[C@H]3CO4)nc(N3C[C@@H]4C[C@H]3CO4)n2)cc1)Nc1ccc(N2CCNCC2)cc1` [Example 313, 1-{4-[4,6-di-(1S,4S)-2-oxa-5-azabicyclo[2.2.1]hept-5-yl-1,3,5-triazin-2-yl]phenyl}-3-(4-piperazin-1-ylphenyl)urea]: the half-maximal inhibitory concentration (IC50) turned out to be 37 nM at Human mTOR (FLAG-TOR); 1730 nM at PI3K-α; 7490 nM at PI3K-γ; 100 nM in test [1] (MTS cell growth assay, three days after drug treatment).
